Experimental data published in ChEMBL document CHEMBL4138123, “Design, synthesis and biological evaluation of novel pyrazolochalcones as potential modulators of PI3K/Akt/mTOR pathway and inducers of apoptosis in breast cancer cells” (Eur J Med Chem, 2017).

Experiments:
Type in all cases: functional
[1] = tested on: MOLT-4; assay: Cytotoxicity against human MOLT4 cells assessed as cell growth at 10 uM after 48 hrs by sulforhodamine B assay relative to control; settings: MOLT-4, 48 h, read-out: Activity
[2] = tested on: SR; assay: Cytotoxicity against human SR cells assessed as cell growth at 10 uM after 48 hrs by sulforhodamine B assay relative to control; settings: read-out: Activity
[3] = tested on: TK-10; assay: Cytotoxicity against human TK10 cells assessed as cell growth at 0.1 uM after 48 hrs by sulforhodamine B assay relative to control; settings: TK-10, 48 h, read-out: Activity
[4] = tested on: A549; assay: Cytotoxicity against human A549/ATCC cells assessed as cell growth at 1 uM after 48 hrs by sulforhodamine B assay relative to control; settings: A549, 48 h, read-out: Activity
[5] = tested on: MOLT-4; assay: Cytotoxicity against human MOLT4 cells assessed as cell growth at 0.01 uM after 48 hrs by sulforhodamine B assay relative to control; settings: MOLT-4, 48 h, read-out: Activity
[6] = tested on: PC-3; assay: Cytotoxicity against human PC3 cells assessed as cell growth at 0.01 uM after 48 hrs by sulforhodamine B assay relative to control; settings: PC-3, 48 h, read-out: Activity
[7] = tested on: Hs-578T; assay: Cytotoxicity against human Hs 578T cells assessed as cell growth at 0.01 uM after 48 hrs by sulforhodamine B assay relative to control; settings: read-out: Activity
[8] = tested on: 786-0; assay: Cytotoxicity against human 786-0 cells assessed as cell growth at 100 uM after 48 hrs by sulforhodamine B assay relative to control; settings: 786-0, 48 h, read-out: Activity
[9] = tested on: OVCAR-4; assay: Cytotoxicity against human OVCAR4 cells assessed as cell growth at 1 uM after 48 hrs by sulforhodamine B assay relative to control; settings: OVCAR-4, 48 h, read-out: Activity
[10] = tested on: SK-MEL-28; assay: Cytotoxicity against human SK-MEL-28 cells assessed as growth inhibition after 48 hrs by sulforhodamine B assay; settings: SK-MEL-28, 48 h
[11] = tested on: TK-10; assay: Cytotoxicity against human TK10 cells assessed as cell growth at 100 uM after 48 hrs by sulforhodamine B assay relative to control; settings: TK-10, 48 h, read-out: Activity
[12] = tested on: 786-0; assay: Cytotoxicity against human 786-0 cells assessed as cell growth at 0.01 uM after 48 hrs by sulforhodamine B assay relative to control; settings: 786-0, 48 h, read-out: Activity
[13] = tested on: OVCAR-8; assay: Cytotoxicity against human OVCAR8 cells assessed as cell growth at 10 uM after 48 hrs by sulforhodamine B assay relative to control; settings: OVCAR-8, 48 h, read-out: Activity
[14] = tested on: IGROV-1; assay: Cytotoxicity against human IGROV1 cells assessed as growth inhibition after 48 hrs by sulforhodamine B assay; settings: IGROV-1, 48 h
[15] = tested on: HCC 2998; assay: Cytotoxicity against human HCC2998 cells assessed as cell growth at 10 uM after 48 hrs by sulforhodamine B assay relative to control; settings: HCC 2998, 48 h, read-out: Activity
[16] = tested on: SK-MEL-5; assay: Cytotoxicity against human SK-MEL-5 cells assessed as cell growth at 0.01 uM after 48 hrs by sulforhodamine B assay relative to control; settings: SK-MEL-5, 48 h, read-out: Activity
[17] = tested on: T47D; assay: Cytotoxicity against human T47D cells assessed as cell growth at 100 uM after 48 hrs by sulforhodamine B assay relative to control; settings: read-out: Activity
[18] = tested on: M14; assay: Cytotoxicity against human M14 cells assessed as cell growth at 0.01 uM after 48 hrs by sulforhodamine B assay relative to control; settings: M14, 48 h, read-out: Activity
[19] = tested on: UACC-62; assay: Cytotoxicity against human UACC62 cells assessed as cell growth at 0.01 uM after 48 hrs by sulforhodamine B assay relative to control; settings: UACC-62, 48 h, read-out: Activity
[20] = tested on: OVCAR-5; assay: Cytotoxicity against human OVCAR5 cells assessed as cell growth at 10 uM after 48 hrs by sulforhodamine B assay relative to control; settings: OVCAR-5, 48 h, read-out: Activity
[21] = tested on: HT-29; assay: Cytotoxicity against human HT-29 cells assessed as cell growth at 0.1 uM after 48 hrs by sulforhodamine B assay relative to control; settings: HT-29, 48 h, read-out: Activity
[22] = tested on: COLO 205; assay: Cytotoxicity against human COLO205 cells assessed as cell growth at 100 uM after 48 hrs by sulforhodamine B assay relative to control; settings: COLO 205, 48 h, read-out: Activity
[23] = tested on: OVCAR-3; assay: Cytotoxicity against human OVCAR3 cells assessed as cell growth at 100 uM after 48 hrs by sulforhodamine B assay relative to control; settings: OVCAR-3, 48 h, read-out: Activity
[24] = tested on: ACHN; assay: Cytotoxicity against human ACHN cells assessed as growth inhibition after 48 hrs by sulforhodamine B assay
[25] = tested on: COLO 205; assay: Cytotoxicity against human COLO205 cells assessed as cell growth at 0.01 uM after 48 hrs by sulforhodamine B assay relative to control; settings: COLO 205, 48 h, read-out: Activity
[26] = tested on: OVCAR-5; assay: Cytotoxicity against human OVCAR5 cells assessed as growth inhibition after 48 hrs by sulforhodamine B assay; settings: OVCAR-5, 48 h
[27] = tested on: KM12; assay: Cytotoxicity against human KM12 cells assessed as cell growth at 0.1 uM after 48 hrs by sulforhodamine B assay relative to control; settings: KM12, 48 h, read-out: Activity
[28] = tested on: MCF7; assay: Cytotoxicity against human MCF7 cells assessed as cell growth at 0.1 uM after 48 hrs by sulforhodamine B assay relative to control; settings: MCF7, 48 h, read-out: Activity
[29] = tested on: SK-MEL-28; assay: Cytotoxicity against human SK-MEL-28 cells assessed as cell growth at 0.1 uM after 48 hrs by sulforhodamine B assay relative to control; settings: SK-MEL-28, 48 h, read-out: Activity
[30] = tested on: Hs-578T; assay: Cytotoxicity against human Hs 578T cells assessed as cell growth at 10 uM after 48 hrs by sulforhodamine B assay relative to control; settings: read-out: Activity
[31] = tested on: SF-539; assay: Cytotoxicity against human SF539 cells assessed as cell growth at 0.01 uM after 48 hrs by sulforhodamine B assay relative to control; settings: SF-539, 48 h, read-out: Activity
[32] = tested on: ACHN; assay: Cytotoxicity against human ACHN cells assessed as cell growth at 1 uM after 48 hrs by sulforhodamine B assay relative to control; settings: read-out: Activity
[33] = tested on: SK-MEL-5; assay: Cytotoxicity against human SK-MEL-5 cells assessed as cell growth at 0.1 uM after 48 hrs by sulforhodamine B assay relative to control; settings: SK-MEL-5, 48 h, read-out: Activity
[34] = tested on: OVCAR-4; assay: Cytotoxicity against human OVCAR4 cells assessed as cell growth at 0.1 uM after 48 hrs by sulforhodamine B assay relative to control; settings: OVCAR-4, 48 h, read-out: Activity
[35] = tested on: DU-145; assay: Cytotoxicity against human DU145 cells assessed as growth inhibition after 48 hrs by sulforhodamine B assay; settings: DU-145, 48 h
[36] = tested on: M14; assay: Cytotoxicity against human M14 cells assessed as cell growth at 0.1 uM after 48 hrs by sulforhodamine B assay relative to control; settings: M14, 48 h, read-out: Activity
[37] = tested on: OVCAR-3; assay: Cytotoxicity against human OVCAR3 cells assessed as cell growth at 10 uM after 48 hrs by sulforhodamine B assay relative to control; settings: OVCAR-3, 48 h, read-out: Activity

COc1ccc(-c2cc(/C=C/C(=O)c3ccc(OC)c(OC)c3)[nH]n2)cc1
growth at 10 µM [1]: -10% | growth at 10 µM [2]: -29% | growth at 0.1 µM [3]: 102% | growth at 1 µM [4]: 77% | growth at 0.01 µM [5]: 105% | growth at 0.01 µM [6]: 95% | growth at 0.01 µM [7]: 96% | growth at 100 µM [8]: -96% | growth at 1 µM [9]: 39% | GI50 [10]: 1.65 µM | LC50 [10]: 5.74 µM | TGI [10]: 3.07 µM | growth at 100 µM [11]: -98% | growth at 0.01 µM [12]: 100% | growth at 10 µM [13]: 1% | GI50 [14]: 1.57 µM | LC50 [14]: 8.49 µM | TGI [14]: 3.65 µM | growth at 10 µM [15]: -68% | growth at 0.01 µM [16]: 90% | growth at 100 µM [17]: -83% | growth at 0.01 µM [18]: 101% | growth at 0.01 µM [19]: 99% | growth at 10 µM [20]: -49% | growth at 0.1 µM [21]: 101% | growth at 100 µM [22]: -77% | growth at 100 µM [23]: -96% | GI50 [24]: 1.68 µM | LC50 [24]: 8.71 µM | TGI [24]: 3.83 µM | growth at 0.01 µM [25]: 103% | GI50 [26]: 1.65 µM | LC50 [26]: 10.6 µM | TGI [26]: 4.09 µM | growth at 0.1 µM [27]: 103% | growth at 0.1 µM [28]: 88% | growth at 0.1 µM [29]: 98% | growth at 10 µM [30]: 23% | growth at 0.01 µM [31]: 95% | growth at 1 µM [32]: 82% | growth at 0.1 µM [33]: 93% | growth at 0.1 µM [34]: 77% | GI50 [35]: 1.4 µM | TGI [35]: 2.81 µM | CC50 ([35]; read-out: LC50 (the source's name)): 5.64 µM | growth at 0.1 µM [36]: 105% | growth at 10 µM [37]: -95%
